Patent publication US20260355097A1, “MICROBIOME FRIENDLY SUBSTANCES AND MICROBIOME FRIENDLY COSMETIC FORMULATIONS” (BASF SE, priority 2023, published 2026)
Counter-ions that a name gives are not always drawn.

What follows are molecules tested on Staphylococcus aureus, Staphylococcus epidermidis, Malassezia furfur (assay: Lowest MIC over the microorganisms tested). Details: lowest MIC value obtained over the tested microorganisms.
Type: cell-based
Description: Minimal Inhibitory Concentration tests are tests typically used to measure growth inhibition by a substance. MICs are defined as the lowest test concentrations of the test substance at which growth of specific microorganisms are inhibited.
In the present case predefined dilutions of the test substance in the appropriate culture medium were prepared and inoculated with the microorganism of interest. After incubation, the test organisms were cultured over a time-period and under conditions normally allowing growth of the microorganism. Vehicle controls (vehicle=solvent used, e. g. water) were also assessed to determine growth without the test substance. The organisms of interest tested were the representative strains S. aureus (found on the skin, often a pathogen), S. epidermidis and Malassezia furfur. The higher the MIC value, the less inhibition of growth is observed. In the following results the test concentrations are given as percent of active substance content.
For each substance the lowest MIC value obtained determines whether this substance in useful as microbiome friendly cosmetic ingredient. A substance is useful as microbiome friendly cosmetic ingredient, if this lowest MIC is not lower than a threshold value. This threshold value depends on the type of the substance (solubilizer, emulsifier etc.) and is related to the amount in which these types of substances are generally used in common cosmetic formulations.

Molecule	lowest MIC
OCCCCO [1.4 Butandiol, 1,4 Butandiol]	>1 % by weight
CC(O)CCO (stereo not drawn) [Butylene Glycol, 1,3-Butanediol]	20.00 % by weight
OCC(O)CO [Glycerin]	20.00 % by weight
CCCCCCCC/C=C\CCCCCCCC(=O)OCC(O)CO (stereo not drawn) [Glyceryl Oleate]	>2 % by weight
CCCCCCCCCCCCCCCCCC(=O)OCC(O)CO.O=C(O)CC(O)(CC(=O)O)C(=O)O (stereo not drawn) [Glyceryl Stearate Citrate]	>3 % by weight
CCCCCCCCCCCCCCCCOP(=O)([O-])[O-].[K+].[K+] [Potassium Cetyl Phosphate]	1.00 % by weight
O=C(O)c1ccccc1 [Sodium Benzoate]	0.25 % by weight
CCOC(=O)CC(O)(CC(=O)OCC)C(=O)OCC [Triethyl Citrate]	1 % by weight
CCCCC/C=C\C/C=C\CCCCCCCC(=O)OCC [ethyl linoleate]	>1 % by weight
Conjugated Linoleic Acid	>1 % by weight
Disodium Cetearyl Sulfosuccinate	0.05 % by weight
Sodium Cetearyl Sulfate	0.08 % by weight
